Read-outs that look alike come from different tables or passages of the source. Positions of bridges follow the written chain, without caps; N, C: chain ends. Non-standard residues stand in square brackets, D forms with d. Residues, ends and D or L forms follow the SMILES beside them. No end group written: not given here. *: point of attachment. X1 = CC[C@H](C)CCCCC(=O)*; Dab = NCC[C@H](N)C(=O)O
Key:
S. aureus ATCC 19636 = assay: Mouse sepsis model, survival; type: in vivo; conditions: ICR mice
Procedure: (§1) We determined the in vivo protection efficacy of peptides in two different mouse infection models. In the mouse sepsis model ([Chen et al., 2016]), 3-week-old male ICR mice (∼20 g) were purchased from BioLASCO (Taiwan). These mice were inoculated intraperitoneally with S. aureus ATCC 19636 (4 × 10^6 CFU/mouse). At 2 h post-inoculation, the mice were randomly separated into 5 groups and received peptides (5 or 10 mg/kg) or the PBS control, respectively. Each group contained 5 mice. Mortality was monitored daily for 7 days following the bacterial inoculation. This experiment was repeated twice. In the mouse lung infection model ([Yang et al., 2016]), 6–8-week-old male C57BL/6JNarl mice (∼27 g) were purchased from National Laboratory Animal Center, Taiwan. The inoculums (3.5 × 10^8 CFU/mouse) were prepared by 1:1 mixing of LB culture and 10% mucin (Sigma). All mice were randomly separated into 3 groups and anesthetized by Isoflurane via inhalation, and inoculated intra-tracheally with colistin-resistant A. baumannii TCGH 46709. Two hours after inoculation, the mice were intraperitoneally injected daily with either colistin (5 mg/kg) ([Fishbain and Peleg, 2010]) or HBcARD derivative peptides (5 or 10 mg/kg), respectively, for three consecutive days. Each group contained 8 mice. Mortality was monitored every 12 h following the bacterial inoculation. This experiment was repeated twice.
The mice (∼20 g) were i.p. (intraperitoneally) inoculated with S. aureus ATCC19636 (4 × 10^6 CFU/mouse), followed by treatments with peptides or the PBS control at 2 h post-inoculation. We monitored the survival rate for 7 days (Figure 2B). All mice treated with PBS (10/10) died at day 1 post-inoculation. […] In contrast, administration of L-150-177C peptide at the same dose protected 70% of mice (7/10) from death (p < 0.05). It appears that the C-terminal cysteine is very critical for the in vivo protection as well. Next, we compared the in vivo protection efficacy of HBcARD 150-177C peptides containing either D-form or L-form arginines in this same model. The protection efficacy of peptide L-150-177C was 30% (3/10) at 5 mg/kg, whereas D-150-177C can protect all mice (10/10) from death at the same dose (Figure 2B).

[1] = system: colistin-sensitive A. baumannii ATCC17978; assay: Mouse lung infection model, survival; type: in vivo; conditions: C57BL/6JNarl mice, i.t. colistin-sensitive A. baumannii ATCC17978; i.p. daily for three days; data not shown
ICR mice [2] = assay: In vivo acute toxicity, survival
Procedure: (§2) To measure in vivo the acute toxicity, 3-week-old male ICR mice (∼20 g) were purchased from BioLASCO (Taiwan). The mice were randomly separated into 6 groups, and were intraperitoneally injected with D-150-177C at concentrations of 20, 40, 60, and 80 mg/kg. A last-line antibiotic, polymyxin B (20 and 50 mg/kg), was used as a control. Each group contained 5 mice. At 1 day post-injection, blood sample was collected from each mouse. The liver function of mice was determined by measuring the ALT level in the blood. The survival rates of injected mice were monitored for 7 days.
(§3) Polymyxins are the last-line antibiotics, but could be toxic at higher dose. We compared the acute toxicity of peptide D-150-177C with polymyxin B using ICR mice. The mice (∼20 g) were i.p. injected with D-150-177C peptide (20–80 mg/kg body weight). Polymyxin B (50 mg/kg body weight) was used as a control antibiotic. […] In contrast, all mice died of polymyxin B at 50 mg/kg.

ICR mice [3] = assay: In vivo acute toxicity, serum ALT (liver injury)
Procedure: as §2, §3

[4] = system: colistin-resistant A. baumannii TCGH 46709; assay: Mouse lung infection model, survival; type: in vivo; conditions: C57BL/6JNarl mice, i.t. A. baumannii TCGH 46709 3.5 × 10^8 CFU/mouse, three consecutive days, 16 mice/group, 3 days
Procedure: as §1
C57BL/6JNarl mice (∼27 g) were anesthetized and intra-tracheally inoculated with A. baumannii (3.5 × 10^8 CFU/mouse). At 2 h post-inoculation, the mice received i.p. injection of either D-150-177C or colistin, respectively, for three consecutive days (1 injection per day).

A. baumannii ATCC17978 [5] = conditions: A. baumannii ATCC17978 strain
Procedure: (§4) Peptides were diluted in the same buffer. […] All peptides were tested in triplicate. […] Peptides were also diluted in MH broth. […] All peptides were tested in duplicate.

A. baumannii ATCC17978 [6] = type: cell-based, Acinetobacter baumannii
Procedure: as §4

S. aureus ATCC19636 = type: cell-based, Staphylococcus aureus; conditions: for MBC: pH 7.2
Procedure: as §4

K. pneumoniae ATCC13884 = type: cell-based, Klebsiella pneumoniae
Procedure: as §4

P. aeruginosa ATCC9027 = type: cell-based, Pseudomonas aeruginosa
Procedure: as §4

P. aeruginosa ATCC27853 = assay: Minimum bactericidal concentration (MBC); type: cell-based, Pseudomonas aeruginosa; conditions: phosphate buffer pH 7.2, 37°C, 3 h, zero colony, triplicate
Procedure: as §4

A. baumannii ATCC19606 = assay: Minimum bactericidal concentration (MBC); type: cell-based, Acinetobacter baumannii; conditions: phosphate buffer pH 7.2, 37°C, 3 h, zero colony, triplicate
Procedure: as §4

A. baumannii ATCC46709 = assay: Minimum bactericidal concentration (MBC); type: cell-based, Acinetobacter baumannii; conditions: A. baumannii ATCC46709 (so in the source); phosphate buffer pH 7.2, 37°C, 3 h; zero colony; triplicate
Procedure: as §4

A. baumannii ATCC45530 = assay: Minimum bactericidal concentration (MBC); type: cell-based, Acinetobacter baumannii; conditions: A. baumannii ATCC45530 (so in the source); phosphate buffer pH 7.2, 37°C, 3 h; zero colony; triplicate
Procedure: as §4

S. aureus ATCC25923 = assay: Minimum bactericidal concentration (MBC); type: cell-based, Staphylococcus aureus; conditions: phosphate buffer pH 7.2, 37°C, 3 h, zero colony, triplicate
Procedure: as §4

S. aureus ATCC29213 = assay: Minimum bactericidal concentration (MBC); type: cell-based, Staphylococcus aureus; conditions: phosphate buffer pH 7.2, 37°C, 3 h, zero colony, triplicate
Procedure: as §4

E. coli ATCC25922 = assay: Minimum bactericidal concentration (MBC); type: cell-based, Escherichia coli; conditions: phosphate buffer pH 7.2, 37°C, 3 h, zero colony, triplicate
Procedure: as §4

[7] = treated mice, all tissues; ref Chen et al., 2013; cited from earlier work
Excerpt: To reduce the cost for D-amino acids in peptide synthesis, we engineered peptides DL-150-177C and LD-150-177C, which contain only approximately 50 ...

[8] = S. aureus ATCC19636 4 × 10^6 CFU/mouse i.p., peptide 5 mg/kg at 2 h post-inoculation, 7 days, n = 10/group (Figure 2B)
[9] = S. aureus ATCC19636, 10^6 CFU/ml in 10 mM sodium phosphate, 50 mM NaCl, 37°C, 3 h, plated on MH agar, zero colony, triplicate
[10] = A. baumannii ATCC17978, phosphate buffer pH 7.2, 37°C, 3 h, zero colony, triplicate
[11] = P. aeruginosa ATCC9027, phosphate buffer pH 7.2, 37°C, 3 h, zero colony, triplicate

Molecule: C[C@@H](O)[C@H](NC(=O)[C@@H](CCCNC(=N)N)NC(=O)[C@@H](CCCNC(=N)N)NC(=O)[C@@H](CCCNC(=N)N)NC(=O)[C@@H]1CCCN1C(=O)[C@H](CO)NC(=O)[C@@H](CCCNC(=N)N)NC(=O)CNC(=O)[C@@H](CCCNC(=N)N)NC(=O)[C@@H](CCCNC(=N)N)NC(=O)[C@H](N)CCCNC(=N)N)C(=O)N1CCC[C@H]1C(=O)N[C@@H](CO)C(=O)N1CCC[C@H]1C(=O)N[C@H](CCCNC(=N)N)C(=O)N[C@H](CCCNC(=N)N)C(=O)N[C@H](CCCNC(=N)N)C(=O)N[C@H](CCCNC(=N)N)C(=O)N[C@@H](CO)C(=O)N[C@@H](CCC(N)=O)C(=O)N[C@@H](CO)C(=O)N1CCC[C@H]1C(=O)N[C@H](CCCNC(=N)N)C(=O)N[C@H](CCCNC(=N)N)C(=O)N[C@H](CCCNC(=N)N)C(=O)N[C@H](CCCNC(=N)N)C(=O)N[C@@H](CO)C(=O)N[C@@H](CS)C(=O)O [D-150-177C] (H-[dR][dR][dR]G[dR]SP[dR][dR][dR]TPSP[dR][dR][dR][dR]SQSP[dR][dR][dR][dR]SC-OH; N-terminus and C-terminus assumed)
- survival rate (S. aureus ATCC 19636; [8]): 100%
- survival rate (S. aureus ATCC 19636; S. aureus sepsis, peptide 5 mg/kg at 2 h post-inoculation, n = 10/group, D-arginine substitution comparison (Figure 4)): protected all mice from death
- survival rate [1]: comparable to that of colistin treatment
- LD50 (ICR mice [2]; i.p., estimated from survival at 20-80 mg/kg): ~75 mg/kg
- survival rate (ICR mice [2]; single i.p. 20 mg/kg, 7 days, 5 mice/group): 100%
- survival rate (ICR mice [2]; single i.p. 40 mg/kg, 7 days, 5 mice/group): 100%
- survival rate (ICR mice [2]; single i.p. 60 mg/kg, 7 days, 5 mice/group): 80%
- survival rate (ICR mice [2]; single i.p. 80 mg/kg, 7 days, 5 mice/group): 40%
- ALT level compared with polymyxin B at 20 mg/kg (ICR mice [3]; i.p. 20 mg/kg, serum at day 1): slight increase
- ALT level compared with polymyxin B at 20 mg/kg (ICR mice [3]; i.p. 40 mg/kg, serum at day 1): slight increase
- ALT level compared with polymyxin B at 20 mg/kg (ICR mice [3]; i.p. 60 mg/kg, serum at day 1, P < 0.01): significantly higher
- average ALT value (ICR mice [3]; i.p. 60 mg/kg, serum at day 1 post-injection): less than 100 IU/L
- survival rate (mice protected from death) ([4]; 5 mg/kg/day i.p. from 2 h): 62.5%
- survival rate (mice protected from death) ([4]; 10 mg/kg/day i.p. from 2 h): 87.5%

Molecule: CC[C@H](C)CCCCC(=O)N[C@@H](CCN)C(=O)N[C@H](C(=O)N[C@@H](CCN)C(=O)N[C@H]1CCNC(=O)[C@H]([C@@H](C)O)NC(=O)[C@H](CCN)NC(=O)[C@H](CCN)NC(=O)[C@H](CC(C)C)NC(=O)[C@@H](CC(C)C)NC(=O)[C@H](CCN)NC1=O)[C@@H](C)O [colistin, reference compound] (X1-[Dab]T[Dab][Dab][Dab][dL]L[Dab][Dab]T; lactam 4-C (inferred); N-terminus assumed)
- MIC (A. baumannii ATCC17978 [5]): around 4 mg/L
- survival rate (mice protected from death) ([4]; 5 mg/kg/day i.p. from 2 h): 12.5%

Molecule: NAKDYKGAAAEFPKWNKAGGRVLAGLVKRRKC [LysinC]
- decrease in MBC relative to parental peptide without C-terminal cysteine (A. baumannii ATCC17978 [6]; A. baumannii): 32 fold
- MBC (A. baumannii ATCC17978 [6]; ATCC17978, 3 h, pH 7.2): 32 µg/mL
- MBC (S. aureus ATCC19636; ATCC19636, 3 h): 128 µg/mL
- decrease in MBC relative to parental peptide without C-terminal cysteine (S. aureus ATCC19636; S. aureus): > 8 fold
- MBC (K. pneumoniae ATCC13884; ATCC13884, 3 h, pH 7.2): 128 µg/mL
- decrease in MBC relative to parental peptide without C-terminal cysteine (K. pneumoniae ATCC13884; K. pneumonia): > 8 fold
- MBC (P. aeruginosa ATCC9027; ATCC9027, 3 h, pH 7.2): 16 µg/mL
- decrease in MBC relative to parental peptide without C-terminal cysteine (P. aeruginosa ATCC9027; P. aeruginosa): 4 fold

Molecule: RRRGRSPRRRTPSPRRRRSC [150-171C]
- MBC (S. aureus ATCC19636; [9]): > 57.2 µg/mL

Molecule: RRRGRSPRRRTPSPRRRRSQSPRRRRSC [150-177C]
- survival rate (S. aureus ATCC 19636; [8]): 30%
- survival rate (S. aureus ATCC 19636; S. aureus ATCC19636 4 × 10^6 CFU/mouse i.p., peptide 10 mg/kg at 2 h post-inoculation, 7 days, n = 10/group (Figure 2B)): 70%
- MBC (P. aeruginosa ATCC27853): 7.1 µg/mL
- MBC (A. baumannii ATCC17978 [6]; [10]): 1.8 µg/mL
- MBC (A. baumannii ATCC19606): 0.9 µg/mL
- MBC (A. baumannii ATCC46709): 3.6 µg/mL
- MBC (A. baumannii ATCC45530): 1.8 µg/mL
- MBC (S. aureus ATCC19636; [9]): 7.1 µg/mL
- MBC (S. aureus ATCC25923): 7.1 µg/mL
- MBC (S. aureus ATCC29213): 7.1 µg/mL
- MBC (P. aeruginosa ATCC9027; [11]): 7.1 µg/mL
- MBC (E. coli ATCC25922): 7.1 µg/mL

Molecule: RRRRSQSPRRRRSC [164-177C]
- MBC (S. aureus ATCC19636; [9]): > 57.2 µg/mL

Molecule: RRRTPSPRRRRSQSPRRRRSC [157-177C]
- MBC (S. aureus ATCC19636; [9]): > 57.2 µg/mL

Molecule: TVVRRRGRSPRRRTPSPRRRRSQSPRRRRSQSRESQC [147-183]
- MBC (P. aeruginosa ATCC27853): 9.2 µg/mL
- MBC (A. baumannii ATCC17978 [6]; [10]): 2.3 µg/mL
- MBC (A. baumannii ATCC19606): 2.3 µg/mL
- MBC (A. baumannii ATCC46709): 4.6 µg/mL
- MBC (A. baumannii ATCC45530): 2.3 µg/mL
- MBC (S. aureus ATCC19636; [9]): 18.3 µg/mL
- reduction of bacterial burdens in spleen, liver, and blood [7]: approximately 100 fold
- MBC (S. aureus ATCC25923): 18.3 µg/mL
- MBC (S. aureus ATCC29213): 18.3 µg/mL
- MBC (P. aeruginosa ATCC9027; [11]): 9.2 µg/mL
- MBC (E. coli ATCC25922): 18.3 µg/mL

Molecule: polymyxin B [reference compound]
- survival (ICR mice [2]; single i.p. 50 mg/kg, 7 days, 5 mice/group): all mice died
